{"source": "patent US20070027181A1", "about": "“Benzylisoquinoline derivative- or bisbenzylisoquinoline derivative-containing psychotropic agent, analgesic and/or antiphlogistic, and health food” (EDUCATION CENTER OF TRADITIONAL, priority 2004, published 2007)", "format_in_all_cases": "in vivo, Male ICR mice", "key": {"mice [1]": {"tested_on": "mice", "experiment": "thiopental sleep-enhancing test", "details": "50 mg/kg i.p. 15 minutes before thiopental 60 mg/kg i.p.", "method": "Actions on thiopental sleep by various compounds were evaluated. Thiopental dissolved in physiological saline was administered intraperitoneally into mice at a dose of 60 mg/kg. […] The time when the righting reflex of the mice disappeared after thiopental administration was designated as sleep-induction time and the time when the righting reflex was restored was designated as awakening time, and total sleep time was calculated from these values."}, "mice [2]": {"tested_on": "mice", "experiment": "suppression of the enhancement of ultromotivity by methamphetamine", "details": "methamphetamine 1 mg/kg 15 minutes later, 60 minutes", "experimental": "In the following Examples, all extracts and drugs used were dissolved in physiological saline before use for i.p. administration and the dose was 0.1 ml of physiological saline per 10 g of mouse body weight in either case. All extracts and drugs were suspended in physiological saline containing 1% sodium carboxymethylcellulose before use for oral administration and the dose was 0.1 ml of 1% sodium carboxymethylcellulose-containing physiological saline suspension per 10 g of mouse body weight in either case. Male ICR mice (Japan SLC) having a body weight of 25 to 30 g were used in the tests below unless otherwise stated, and were fed in advance at a room temperature of 23±1° C. and a relative humidity of 55±5% in the environment of a cycle of 12-hour-light from 7 a.m. to 7 p.m. and 12-hour-dark from 7 p.m. to 7 a.m. for 3 to 5 days. […]\nFifteen mice were grouped into three groups of five mice, to which 50 mg/kg of neferine hydrochloride (treatment group 3-1), 100 mg/kg of the same (treatment group 3-2), and only physiological saline (negative control group) were administered respectively intraperitoneally. […] After administration of methamphetamine, each of the mice was placed in a transparent polycarbonate cage (22.5 cm×33.8 cm×14.0 cm), where the ultromotivity of the mouse was analyzed for 60 minutes by using a locomotor activity analyzer (NS-AS01, Neuroscience Inc.)."}, "mice [3]": {"tested_on": "mice", "experiment": "acetic acid-induced writhing test", "experimental": "(§1) In the following Examples, all extracts and drugs used were dissolved in physiological saline before use for i.p. administration and the dose was 0.1 ml of physiological saline per 10 g of mouse body weight in either case. All extracts and drugs were suspended in physiological saline containing 1% sodium carboxymethylcellulose before use for oral administration and the dose was 0.1 ml of 1% sodium carboxymethylcellulose-containing physiological saline suspension per 10 g of mouse body weight in either case. Male ICR mice (Japan SLC) having a body weight of 25 to 30 g were used in the tests below unless otherwise stated, and were fed in advance at a room temperature of 23±1° C. and a relative humidity of 55±5% in the environment of a cycle of 12-hour-light from 7 a.m. to 7 p.m. and 12-hour-dark from 7 p.m. to 7 a.m. for 3 to 5 days. The mice were allowed to have water and feed freely.\nAn acetic acid-induced writhing test is a method wherein analgesic action of a compound is determined utilizing this. The number of this writhing is compared between a physiological saline-administered control group and a test drug-administered group, and suppression of the number of writhing by the test drug is investigated thereby assessing its analgesic action.\nSeven to ten mice per group were used. Neferine hydrochloride was subcutaneously administered to mice at their back at a dose of 5 mg/kg, 10 mg/kg, 25 mg/kg, 50 mg/kg or 100 mg/kg and, after 15 minutes, a 0.6% by weight solution of acetic acid in water was intraperitoneally administered at 0.1 mL/10 g body weight. The number of writhing was counted every ten minutes for 30 minutes from immediately after acetic acid administration (0 to 10 min, 10 to 20 min, 20 to 30 min). In addition, the total number of writhing for 30 minutes from immediately after acetic acid administration was also obtained. Regarding the resulting measurements, a significant difference test was performed by a Dunnet multiple comparison test method.\nAccording to the same manner as in acetic acid-induced writhing test-1 except that acetic acid was intraperitoneally administered 30 minutes after subcutaneous administration of neferine in the aforementioned acetic acid-induced writhing test-1, an acetic acid-induced writhing test was performed. However, the dose of neferine was only 50 mg/kg.\nAccording to the same manner as in the acetic acid-induced writhing test-1 except that acetic acid was intraperitoneally administered 30 minutes after oral administration of neferine in the aforementioned acetic acid-induced writhing test-1, an acetic acid-induced writhing test was performed. However, five to six mice per group were used. The dose of neferine was 10 mg/kg and 50 mg/kg. Further, aspirin was used as a positive control drug. The dose of aspirin was 50 mg/kg.\n(§2) According to the same manner as in acetic acid-induced writhing test-1 except that armepavine was used in place of neferine in the aforementioned acetic acid-induced writhing test-1, an acetic acid-induced writhing test was performed. However, the dose of armepavine was 5 mg/kg and 10 mg/kg.\nas §2, with “O-methylarmepavine” for “armepavine”"}, "mice [4]": {"tested_on": "mice", "experiment": "formalin pad test", "details": "for Licking sustaining time (second) First phase: 0 to 5 minutes; for Licking sustaining time (second) Second phase: 15 to 30 minutes", "experimental": "as §1\nA formalin pad test is a method in which, when formalin is subcutaneously administered to a pad of a mouse, the mouse causes licking, and analgesic action of a test drug is determined by utilizing this. Suppression of licking in a test drug-administered group was investigated relative to a physiological saline-administered control group, and analgestic action was evaluated.\nSix mice per group were used. Neferine hydrochloride was intraperitoneally administered at a dose of 25 mg/kg, 50 mg/kg or 100 mg/kg and, after fifteen minutes, 20 μl of a 0.2% by weight formalin aqueous solution was subcutaneously administered to a right hind paw pad. After formalin administration, licking was regarded as a provisional pain reaction, and a licking sustaining time in a first phase from immediately after formalin administration to five minutes after formalin administration and in a second phase from 15 minutes to 30 minutes after formalin administration was measured. Regarding the resulting measurements, a significant difference test was performed by a Dunnet multiple comparison test method.\nAccording to the same manner as in Example 13 except that 10 mg/kg of O-methylarmepavine was intraperitoneally administered in place of neferine, a formalin pad test was performed."}, "[5]": {"details": "5 mg/kg s.c. 15 minutes before acetic acid"}, "[6]": {"details": "10 mg/kg oral 30 minutes before acetic acid"}, "[7]": {"details": "10 mg/kg s.c. 15 minutes before acetic acid"}, "[8]": {"details": "25 mg/kg s.c. 15 minutes before acetic acid"}, "[9]": {"details": "50 mg/kg oral 30 minutes before acetic acid"}, "[10]": {"details": "50 mg/kg s.c. 15 minutes before acetic acid"}, "[11]": {"details": "50 mg/kg s.c. 30 minutes before acetic acid"}, "[12]": {"details": "100 mg/kg s.c. 15 minutes before acetic acid"}, "[13]": {"details": "25 mg/kg i.p. 15 minutes before formalin"}, "[14]": {"details": "50 mg/kg i.p. 15 minutes before formalin"}, "[15]": {"details": "100 mg/kg i.p. 15 minutes before formalin"}}}
{"smiles": "COc1ccc(C[C@@H]2c3cc(Oc4cc(C[C@@H]5c6cc(OC)c(OC)cc6CCN5C)ccc4O)c(OC)cc3CCN2C)cc1", "note": "[neferine]", "values": [{"measurement": "Total sleep time", "setting": "mice [1]", "result": 100, "unit": "min"}, {"measurement": "Ultromotivity (count)", "setting": "mice [2]; 50 mg/kg i.p.", "result": 2600, "unit": "count"}, {"measurement": "Ultromotivity (count)", "setting": "mice [2]; 100 mg/kg i.p.", "result": 1800, "unit": "count"}, {"measurement": "Number of writhing 0-10 min.", "setting": "mice [3]; [5]", "result": "21.8 ± 2.30"}, {"measurement": "Number of writhing 0-30 min.", "setting": "mice [3]; [5]", "result": "51.0 ± 5.34"}, {"measurement": "Number of writhing 10-20 min.", "setting": "mice [3]; [5]", "result": "19.0 ± 2.14"}, {"measurement": "Number of writhing 20-30 min.", "setting": "mice [3]; [5]", "result": "10.7 ± 2.04"}, {"measurement": "Number of writhing 0-10 min.", "setting": "mice [3]; [6]", "result": "7.6 ± 1.63"}, {"measurement": "Number of writhing 0-30 min.", "setting": "mice [3]; [6]", "result": "23.3 ± 1.52"}, {"measurement": "Number of writhing 10-20 min.", "setting": "mice [3]; [6]", "result": "9.2 ± 1.35"}, {"measurement": "Number of writhing 20-30 min.", "setting": "mice [3]; [6]", "result": "6.5 ± 2.50"}, {"measurement": "Number of writhing 0-10 min.", "setting": "mice [3]; [7]", "result": "12.1 ± 1.91"}, {"measurement": "Number of writhing 0-30 min.", "setting": "mice [3]; [7]", "result": "31.6 ± 6.15"}, {"measurement": "Number of writhing 10-20 min.", "setting": "mice [3]; [7]", "result": "11.6 ± 2.66"}, {"measurement": "Number of writhing 20-30 min.", "setting": "mice [3]; [7]", "result": "7.9 ± 3.06"}, {"measurement": "Number of writhing 0-10 min.", "setting": "mice [3]; [8]", "result": "8.9 ± 2.22"}, {"measurement": "Number of writhing 0-30 min.", "setting": "mice [3]; [8]", "result": "19.4 ± 3.48"}, {"measurement": "Number of writhing 10-20 min.", "setting": "mice [3]; [8]", "result": "6.9 ± 1.90"}, {"measurement": "Number of writhing 20-30 min.", "setting": "mice [3]; [8]", "result": "3.6 ± 1.19"}, {"measurement": "Number of writhing 0-10 min.", "setting": "mice [3]; [9]", "result": "2.4 ± 1.94"}, {"measurement": "Number of writhing 0-30 min.", "setting": "mice [3]; [9]", "result": "8.0 ± 3.08"}, {"measurement": "Number of writhing 10-20 min.", "setting": "mice [3]; [9]", "result": "4.0 ± 1.30"}, {"measurement": "Number of writhing 20-30 min.", "setting": "mice [3]; [9]", "result": "1.6 ± 0.81"}, {"measurement": "Number of writhing 0-10 min.", "setting": "mice [3]; [10]", "result": "5.7 ± 1.38"}, {"measurement": "Number of writhing 0-30 min.", "setting": "mice [3]; [10]", "result": "19.7 ± 3.56"}, {"measurement": "Number of writhing 10-20 min.", "setting": "mice [3]; [10]", "result": "5.7 ± 1.38"}, {"measurement": "Number of writhing 20-30 min.", "setting": "mice [3]; [10]", "result": "5.3 ± 2.15"}, {"measurement": "Number of writhing 0-10 min.", "setting": "mice [3]; [11]", "result": "10.6 ± 2.53"}, {"measurement": "Number of writhing 0-30 min.", "setting": "mice [3]; [11]", "result": "27.4 ± 3.73"}, {"measurement": "Number of writhing 10-20 min.", "setting": "mice [3]; [11]", "result": "10.3 ± 1.90"}, {"measurement": "Number of writhing 20-30 min.", "setting": "mice [3]; [11]", "result": "6.6 ± 1.53"}, {"measurement": "Number of writhing 0-10 min.", "setting": "mice [3]; [12]", "result": "4.0 ± 1.22"}, {"measurement": "Number of writhing 0-30 min.", "setting": "mice [3]; [12]", "result": "14.9 ± 2.16"}, {"measurement": "Number of writhing 10-20 min.", "setting": "mice [3]; [12]", "result": "6.7 ± 1.31"}, {"measurement": "Number of writhing 20-30 min.", "setting": "mice [3]; [12]", "result": "4.2 ± 1.02"}, {"measurement": "dose showing significant analgesic action against the negative control group", "setting": "mice [3]; 15 minute-before subcutaneous administration", "result": "≥ 10", "unit": "mg/kg"}, {"measurement": "analgesic action compared with aspirin", "setting": "mice [3]; oral administration 30 minutes before acetic acid", "result": "strong analgesic action as compared with aspirin"}, {"measurement": "Licking sustaining time (second) First phase", "setting": "mice [4]; [13]", "result": "95.2 ± 3.79", "unit": "s"}, {"measurement": "Licking sustaining time (second) Second phase", "setting": "mice [4]; [13]", "result": "235.7 ± 13.01", "unit": "s"}, {"measurement": "Licking sustaining time (second) First phase", "setting": "mice [4]; [14]", "result": "98.7 ± 8.57", "unit": "s"}, {"measurement": "Licking sustaining time (second) Second phase", "setting": "mice [4]; [14]", "result": "200.3 ± 24.43", "unit": "s"}, {"measurement": "Licking sustaining time (second) First phase", "setting": "mice [4]; [15]", "result": "78.3 ± 7.57", "unit": "s"}, {"measurement": "Licking sustaining time (second) Second phase", "setting": "mice [4]; [15]", "result": "139.7 ± 18.61", "unit": "s"}]}
